Patent US9555050B2 (BIOGEN MA INC., priority 2012, dated 2017)
pIC50: −log10 of the molar value.

molecular target: T1, Human ATX protein (Homo sapiens, UniProt Q13822); assay: ATX biochemical FRET assay with FS-3 substrate; details: FS-3 substrate 2 μM, ATX 1.0 μg/mL, 30 min preincubation, 2 hours at room temperature
T1 construct: made in house
Excerpt: ATX (Autotaxin) is a 125 KDa glycoprotein with lysophospholipase D (LPLD) activity that generates the bioactive lipid lysophosphatidic acid (LPA) from lysophosphatidylcholine (LPC). The ATX biochemical assay utilizes a FRET (fluorescence resonance energy transfer) technology platform. The fluorescence signal of FRET substrate FS-3 is quenched due to intra-molecular FRET of a fluorophore to a non-fluorescing quencher (Ferguson, C. G., et al., Org Lett. 2006 May 11; 8(10): 2023-2026, which is incorporated by reference in its entirety). ATX catalyzes the hydrolysis of the substrate which separates the dabsyl quencher from the fluorescein reporter, which becomes fluorescent. The reaction is monitored by a SpectraMax M5 (Molecular Devices, Sunnyvale, Calif.) with at excitation wavelength 485 nm and emission wavelength […].
Fatty acid free-BSA (Sigma A8806): 10 mg/mL in H2O, stored at 4° C.
2×ATX assay buffer: 100 mM Tris, 280 mM NaCl, 10 mM KCl, 2 mM CaCl2, 2 mM MgCl2, pH 7.4.
Human ATX protein: expressed and purified in house. Stored at −80° C.
Substrate FS-3 (Echelon, L-2000): 100 μg in 77.74.L H2O (1 mM stock), stored at −20° C.
384-well flat bottom plates—Corning #3575.
Compound dilution—All compounds were provided at 10 mM in 100% DMSO. In the first well, 2 μL of 10 mM compound was added to 78 μL of DMSO (1:40 dilution). In subsequent wells 3-fold dilution (total 10 dilutions) were performed.
1×ATX assay buffer was made up with a final concentration of 1 mg/mL fatty acid free-BSA using 2×ATX assay buffer, 10 mg/ml fatty acid free-BSA and ddH2O.
ATX protein was diluted with 1×ATX assay buffer to a concentration of 1.32 μg/mL (1.32×). 38 μL was added per well to the assay plate. The final concentration of ATX in the reaction as 1.0 μg/mL.
2 μL per well of compounds was transferred to provide the desired concentration. The plate was centrifuged, then incubated at room temperature for 30 minutes on the shaker.
FS-3 was diluted with 1×ATX assay buffer to a concentration of FS-3 of 10 μM (5×). Then, 10 μL was added per well to the assay plate. The final concentration of FS-3 in the reaction was 2 μM. The plate was centrifuged. The plate was kept shaking at room temperature for 2 hours. Because FS-3 substrate is light sensitive, plates were kept covered and protected from light.
Fluorescence was measured using SpectraMax M5 (excitation at 485 nm/emission at 538 nm, top read).

Row | SMILES | pIC50
1 | C[C@H]1CC[C@@H](Oc2ccc3cc(CN4CCC[C@H](CC(=O)O)C4)ccc3c2C(F)(F)F)CC1 [Example 49, 2-((3R)-1-((6-((cis-4-Methylcyclohexyl)oxy)-5-(trifluoromethyl)naphthalen-2-yl)methyl)piperidin-3-yl)acetic acid] | ≥ 7.00
2 | CC1(C)C(NC(c2ccc3c(C(F)(F)F)c(O[C@H]4CC[C@@H](C(F)(F)F)CC4)ccc3c2)C2CCCCC2)CC1C(=O)O (some centres unmarked) [Example 43] | ≥ 6.30
3 | O=P(O)(O)Cc1ccc(NCc2ccc3c(C(F)(F)F)c(O[C@H]4CC[C@@H](C(F)(F)F)CC4)ccc3c2)cc1 [Example 68, (4-((5-(trifluoromethyl)-6-(cis-4-(trifluoromethyl)cyclohexyloxy)naphthalene-2-yl)methyl)aminophenyl)methylphosphonic acid] | ≥ 7.00
4 | CCC(c1ccc2c(C(F)(F)F)c(O[C@H]3CC[C@@H](C)CC3)ccc2c1)N1CCC[C@H](CC(=O)O)C1 (stereo partly drawn) [Example 10, 2-((3R)-1-(1-(6-((cis-4-Methylcyclohexyl)oxy)-5-(trifluoromethyl)naphthalen-2-yl)propyl)piperidin-3-yl)acetic acid] | ≥ 7.00
5 | O=P(O)(O)CCCNCc1ccc2c(C(F)(F)F)c(O[C@H]3CC[C@@H](C(F)(F)F)CC3)ccc2c1 [Example 63, 3-(((5-(trifluoromethyl)-6-(cis-4-(trifluoromethyl)cyclohexyloxy)naphthalene-2-yl)methyl)amino)propylphosphonic acid] | ≥ 7.00
6 | O=C(O)C1CCC(NCc2ccc3c(C(F)(F)F)c(O[C@H]4CC[C@@H](C(F)(F)F)CC4)ccc3c2)C1 (relative stereo) [Example 66, 1-((5-(trifluoromethyl)-6-((cis-4-(trifluoromethyl)cyclohexyl)oxy)-naphthalen-2-yl)methyl)aminocyclopentane-3-carboxylic acid] | ≥ 6.30
7 | CC[C@H](c1ccc2c(C(F)(F)F)c(O[C@H]3CC[C@@H](C)CC3)ccc2c1)N1CCC[C@H](CC(=O)O)C1 [Example 60, 2-((3R)-1-((R)-1-(6-((cis-4-Methylcyclohexyl)oxy)-5-(trifluoromethyl)naphthalen-2-yl)propyl)piperidin-3-yl)acetic acid] | ≥ 7.00
8 | O=C(O)[C@H]1CCCN(Cc2ccc3c(C(F)(F)F)c(O[C@H]4CC[C@@H](C(F)(F)F)CC4)ccc3c2)C1 [Example 26, (S)-1-((5-(trifluoromethyl)-6-((cis)-4-(trifluoromethyl)cyclohexyloxy)naphthalen-2-yl)methyl)piperidine-3-carboxylic acid] | ≥ 6.60
9 | O=C(O)c1ccc(CNCc2ccc3c(C(F)(F)F)c(O[C@H]4CC[C@@H](C(F)(F)F)CC4)ccc3c2)nc1 [Example 69, 6-((((5-(trifluoromethyl)-6-((cis)-4-(trifluoromethyl)cyclohexyloxy)naphthalene-2-yl)methyl)amino)methyl)nicotinic acid] | ≥ 6.60
10 | O=C(O)C1CN(Cc2ccc3c(C(F)(F)F)c(O[C@H]4CC[C@@H](C(F)(F)F)CC4)ccc3c2)CCC1O (relative stereo) [Example 35, 4-hydroxy-1-((5-(trifluoromethyl)-6-((cis)-4-(trifluoromethyl)cyclohexyloxy)naphthalen-2-yl)methyl)piperidine-3-carboxylic acid] | ≥ 6.30
11 | CC[C@@H](c1ccc2c(C(F)(F)F)c(O[C@H]3CC[C@@H](C)CC3)ccc2c1)N1CCC[C@H](CC(=O)O)C1 [Example 59, 2-((3R)-1-((S)-1-(6-((cis-4-Methylcyclohexyl)oxy)-5-(trifluoromethyl)naphthalen-2-yl)propyl)piperidin-3-yl)acetic acid] | ≥ 7.00
12 | O=C(O)C1CCCCN1Cc1ccc2c(C(F)(F)F)c(O[C@H]3CC[C@@H](C(F)(F)F)CC3)ccc2c1 (relative stereo) [Example 29, 1-((5-(trifluoromethyl)-6-((cis)-4-(trifluoromethyl)cyclohexyloxy)naphthalen-2-yl)methyl)piperidine-2-carboxylic acid] | ≥ 6.30
13 | CC1(C)C(NC(c2ccc3c(C(F)(F)F)c(O[C@H]4CC[C@@H](C(F)(F)F)CC4)ccc3c2)C2CC2)CC1C(=O)O (some centres unmarked) [Example 44] | ≥ 7.00
14 | CC(c1ccc2c(C(F)F)c(O[C@H]3CC[C@@H](C)CC3)ccc2c1)N1CCC[C@@H](CC(=O)O)C1 (stereo partly drawn) [Example 54, 2-((3S)-1-(1-(6-((cis-4-Methylcyclohexyl)oxy)-5-(difluoromethyl)naphthalen-2-yl)ethyl)piperidin-3-yl)acetic acid] | ≥ 7.00
15 | CC1(C)C(NCc2ccc3c(C(F)(F)F)c(O[C@H]4CC[C@@H](C(F)(F)F)CC4)ccc3c2)CC1C(=O)O (stereo partly drawn) [Example 1, 2,2-dimethyl-3-(((5-(trifluoromethyl)-6-((cis-4-(trifluoromethyl)cyclo-hexyl)oxy)naphthalen-2-yl)methyl)amino)cyclobutanecarboxylic acid] | ≥ 6.30
16 | O=C(O)C1CCN(Cc2ccc3c(C(F)F)c(O[C@H]4CC[C@@H](C(F)(F)F)CC4)ccc3c2)CC1 [Example 21, 1-((5-(difluoromethyl)-6-((cis-4-(trifluoromethyl)cyclohexyl)oxy)naphthalen-2-yl)methyl)piperidine-4-carboxylic acid] | ≥ 6.60
17 | O=C(O)C[C@H]1CCCN(Cc2ccc3c(C(F)(F)F)c(O[C@H]4CC[C@@H](C(F)(F)F)CC4)ccc3n2)C1 [Example 14, 2-((R)-1-(((5-(trifluoromethyl)-6-(cis-4-(trifluoromethyl)cyclohexyl)oxy)quinolin-2-yl)methyl)piperidin-3-yl)acetic acid] | ≥ 6.60
18 | CC1(C)C(NC(c2ccc3c(C(F)(F)F)c(O[C@H]4CC[C@@H](C)CC4)ccc3c2)C2CCCCC2)CC1C(=O)O (some centres unmarked) [Example 42] | ≥ 6.30
19 | CC[C@H]1CC[C@@H](Oc2ccc3cc(C(C)N4CCC[C@H](CC(=O)O)C4)ccc3c2C(F)(F)F)CC1 (stereo partly drawn) [Example 6, 2-((3R)-1-(1-(6-((cis-4-ethylcyclohexyl)oxy)-5-(trifluoromethyl)naphthalen-2-yl)ethyl)piperidin-3-yl)acetic acid] | ≥ 7.00
20 | O=C(O)[C@@H]1CCCN(Cc2ccc3c(C(F)(F)F)c(O[C@H]4CC[C@@H](C(F)(F)F)CC4)ccc3c2)C1 [Example 24, (R)-1-((5-(trifluoromethyl)-6-((cis)-4-(trifluoromethyl)cyclohexyloxy)naphthalen-2-yl)methyl)piperidine-3-carboxylic acid] | ≥ 6.30
21 | O=C(O)C[C@@H]1CCN(Cc2ccc3c(C(F)(F)F)c(O[C@H]4CC[C@@H](C(F)(F)F)CC4)ccc3c2)C1 [Example 71, (S)-1-((5-(trifluoromethyl)-6-((cis)-4-(trifluoromethyl)cyclohexyloxy)naphthalene-2-yl)methyl)pyrrolidine-3-acetic acid] | ≥ 6.30
22 | C[C@H]1CC[C@@H](Oc2ccc3cc(CN4CC(CC(=O)O)C4)ccc3c2C(F)(F)F)CC1 [Example 47, 1-((5-trifluoromethyl-6-(cis-4-methylcyclohexyloxy)naphthalene-2-yl)methyl)-azetidine-3-acetic acid] | ≥ 6.30
23 | O=C(O)CC1CCN(Cc2ccc3c(C(F)(F)F)c(O[C@H]4CC[C@@H](C(F)(F)F)CC4)ccc3c2)CC1 [Example 65, 1-((5-(trifluoromethyl)-6-((cis-4-(trifluoromethyl)cyclohexyl)oxy)-naphthalen-2-yl)methyl)piperidine-4-acetic acid] | ≥ 6.60
24 | CCC(c1ccc2c(C(F)(F)F)c(O[C@H]3CC[C@@H](C)CC3)ccc2c1)N1CCC[C@@H](CC(=O)O)C1 (stereo partly drawn) [Example 52, 2-((3S)-1-(1-(6-((cis-4-Methylcyclohexyl)oxy)-5-(trifluoromethyl)naphthalen-2-yl)propyl)piperidin-3-yl)acetic acid] | ≥ 7.00
25 | O=C(NCCCP(=O)(O)O)c1ccc2c(C(F)(F)F)c(OCc3cc(Cl)cc(Cl)c3)ccc2c1 [Example 18, (3-(6-((3,5-dichlorobenzyl)oxy)-5-(trifluoromethyl)-2-naphthamido)propyl)phosphonic acid] | ≥ 7.00
26 | CC(c1ccc2c(C(F)F)c(O[C@H]3CC[C@@H](C)CC3)ccc2c1)N1CC(CC(=O)O)C1 (relative stereo) [Example 98, 1-(1-(5-(Difluoromethyl)-6-((cis-4-methylcyclohexyl)oxy)naphthalen-2-yl)ethyl)azetidine-3-acetic acid] | ≥ 7.00
